Tests used:
[1] = biological target: T1, Glucocorticoid receptor (Homo sapiens, UniProt P04150); assay type: functional, cell-based, CV-1
T1 sequence (P04150 whole entry): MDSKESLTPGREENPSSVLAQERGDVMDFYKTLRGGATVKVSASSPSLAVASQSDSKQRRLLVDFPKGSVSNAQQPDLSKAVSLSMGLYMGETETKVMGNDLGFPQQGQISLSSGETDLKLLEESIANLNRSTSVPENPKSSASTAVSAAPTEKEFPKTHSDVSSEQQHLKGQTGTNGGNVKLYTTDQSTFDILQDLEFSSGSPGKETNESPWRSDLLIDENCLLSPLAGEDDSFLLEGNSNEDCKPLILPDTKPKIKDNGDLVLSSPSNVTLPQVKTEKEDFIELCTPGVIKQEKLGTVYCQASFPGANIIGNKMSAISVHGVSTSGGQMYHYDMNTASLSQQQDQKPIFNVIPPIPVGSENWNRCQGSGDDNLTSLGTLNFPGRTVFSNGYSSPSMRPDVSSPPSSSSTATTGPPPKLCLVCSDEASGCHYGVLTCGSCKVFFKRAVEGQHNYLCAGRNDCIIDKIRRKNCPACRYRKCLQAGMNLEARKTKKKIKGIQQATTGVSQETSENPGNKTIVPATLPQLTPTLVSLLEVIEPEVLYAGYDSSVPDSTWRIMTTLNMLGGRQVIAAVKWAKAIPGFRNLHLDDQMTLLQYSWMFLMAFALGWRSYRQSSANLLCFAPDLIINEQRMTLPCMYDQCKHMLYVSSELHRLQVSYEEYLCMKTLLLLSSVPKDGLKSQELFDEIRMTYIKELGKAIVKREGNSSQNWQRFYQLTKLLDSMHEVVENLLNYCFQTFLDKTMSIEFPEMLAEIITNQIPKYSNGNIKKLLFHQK
Description: Agonist activity at GR expressed in african green monkey CV1 cells transfected with luciferase gene linked to MMTV promoter assessed as induction of luciferase transactivation activity

[2] = biological target: T1, Glucocorticoid receptor
Description: Displacement of radiolabeled Dexamethasone from GR

[3] = biological target: T1, Glucocorticoid receptor; assay type: cell-based, HepG2
Description: Transrepression activity at GR expressed in IL-1beta- and TNFalpha-stimulated HepG2 cells assessed as inhibition of NFKB- or AP-1 mediated E-selectin transcription by luciferase reporter gene assay

[4] = biological target: T1, Glucocorticoid receptor; assay type: cell-based, NHDF
Description: Transrepression activity at GR expressed in NHDF cells assessed as IL-1beta-mediated IL-6 transcription by ELISA

[5] = biological target: T1, Glucocorticoid receptor; assay type: functional, cell-based, H4IIEC3
Description: Agonist activity at GR expressed in rat H4IIEC3 cells assessed as induction of PEPCK transactivation by luciferase reporter gene assay

[6] = biological target: T2, Mineralocorticoid receptor (Homo sapiens, UniProt P08235); test: Binding affinity to mineralocorticoid receptor
T2 sequence (P08235 whole entry): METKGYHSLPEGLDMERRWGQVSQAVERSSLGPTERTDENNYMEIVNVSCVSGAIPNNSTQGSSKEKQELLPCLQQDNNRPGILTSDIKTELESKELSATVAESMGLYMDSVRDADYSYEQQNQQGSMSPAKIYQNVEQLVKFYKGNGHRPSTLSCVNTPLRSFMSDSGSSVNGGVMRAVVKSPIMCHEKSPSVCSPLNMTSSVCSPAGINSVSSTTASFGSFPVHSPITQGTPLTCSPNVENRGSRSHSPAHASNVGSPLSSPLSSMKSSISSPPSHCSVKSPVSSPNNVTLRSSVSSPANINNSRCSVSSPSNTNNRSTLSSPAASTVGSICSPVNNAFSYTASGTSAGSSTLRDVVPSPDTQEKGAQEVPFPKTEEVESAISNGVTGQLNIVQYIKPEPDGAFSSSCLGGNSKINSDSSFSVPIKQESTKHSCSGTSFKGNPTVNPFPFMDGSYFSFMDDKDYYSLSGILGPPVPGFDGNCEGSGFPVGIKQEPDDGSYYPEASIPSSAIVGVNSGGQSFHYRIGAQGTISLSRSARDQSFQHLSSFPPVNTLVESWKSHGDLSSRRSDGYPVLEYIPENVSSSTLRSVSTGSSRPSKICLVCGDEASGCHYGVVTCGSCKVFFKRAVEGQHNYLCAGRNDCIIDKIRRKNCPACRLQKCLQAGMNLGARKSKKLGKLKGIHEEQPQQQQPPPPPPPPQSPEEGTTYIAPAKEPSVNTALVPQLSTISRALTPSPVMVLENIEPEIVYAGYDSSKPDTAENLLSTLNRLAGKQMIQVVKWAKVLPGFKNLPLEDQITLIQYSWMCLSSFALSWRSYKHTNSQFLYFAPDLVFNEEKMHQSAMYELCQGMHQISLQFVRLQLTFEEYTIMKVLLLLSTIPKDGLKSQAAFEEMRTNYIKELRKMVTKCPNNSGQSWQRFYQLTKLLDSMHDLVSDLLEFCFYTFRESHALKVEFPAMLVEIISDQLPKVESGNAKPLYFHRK

[7] = biological target: T3, Progesterone receptor (Homo sapiens, UniProt P06401); test: Binding affinity to progesterone receptor
T3 sequence (P06401 whole entry): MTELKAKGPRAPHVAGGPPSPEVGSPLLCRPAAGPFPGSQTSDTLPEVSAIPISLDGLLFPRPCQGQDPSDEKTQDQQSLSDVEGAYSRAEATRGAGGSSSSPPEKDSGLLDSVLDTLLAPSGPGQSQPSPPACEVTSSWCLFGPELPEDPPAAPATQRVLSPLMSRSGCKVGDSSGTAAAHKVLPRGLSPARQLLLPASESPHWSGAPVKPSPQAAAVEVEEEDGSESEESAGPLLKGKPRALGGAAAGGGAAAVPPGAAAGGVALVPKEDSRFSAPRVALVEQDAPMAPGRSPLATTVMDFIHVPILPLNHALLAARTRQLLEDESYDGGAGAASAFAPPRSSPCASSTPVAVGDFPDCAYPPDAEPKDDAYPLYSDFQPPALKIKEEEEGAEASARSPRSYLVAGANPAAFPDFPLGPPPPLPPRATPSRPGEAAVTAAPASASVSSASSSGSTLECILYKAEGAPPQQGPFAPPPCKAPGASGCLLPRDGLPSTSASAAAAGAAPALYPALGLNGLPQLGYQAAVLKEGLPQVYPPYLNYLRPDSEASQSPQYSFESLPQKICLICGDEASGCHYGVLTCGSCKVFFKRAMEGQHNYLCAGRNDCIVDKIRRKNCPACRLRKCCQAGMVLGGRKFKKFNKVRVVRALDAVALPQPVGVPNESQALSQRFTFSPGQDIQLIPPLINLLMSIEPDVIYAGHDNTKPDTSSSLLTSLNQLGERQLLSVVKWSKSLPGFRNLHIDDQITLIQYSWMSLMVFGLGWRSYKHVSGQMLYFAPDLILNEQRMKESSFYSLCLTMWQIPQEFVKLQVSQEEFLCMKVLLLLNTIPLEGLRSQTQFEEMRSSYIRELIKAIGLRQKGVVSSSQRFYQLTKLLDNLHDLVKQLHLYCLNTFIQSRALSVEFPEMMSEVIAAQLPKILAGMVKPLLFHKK

EC50 [1] | Ki [2] | IC50 [3] | IC50 [4] | EC50 [5] | Ki [6] | Ki [7] | Compound
105 nM | 6.2 nM | 40 nM | > 1000 nM | – | – | – | C[C@H]1c2c(cc(F)c(-c3cccc4cc[nH]c34)c2F)NC(C)(C)[C@@H]1OC(=O)Nc1ccccc1
7.6 nM | 7.6 nM | 9.1 nM | 33 nM | 379 nM | – | – | C[C@H]1c2c(cc(F)c(-c3cccc4c(Cl)c[nH]c34)c2F)NC(C)(C)[C@@H]1OC(=O)Nc1ccccc1
> 1000 nM | 14.3 nM | > 1000 nM | > 1000 nM | – | – | – | C[C@H]1c2c(cc(F)c(-c3cccc4cc[nH]c34)c2F)NC(C)(C)[C@@H]1OC(=O)N(C)c1ccccc1
11 nM | 11.6 nM | 7.5 nM | 31 nM | 687 nM | – | – | COc1ccc(NC(=O)O[C@@H]2[C@@H](C)c3c(cc(F)c(-c4cccc5cc[nH]c45)c3F)NC2(C)C)cc1Cl
5.8 nM | 6.7 nM | 5.7 nM | 12 nM | 283 nM | – | – | COc1ccc(NC(=O)O[C@@H]2[C@@H](C)c3c(cc(F)c(-c4cccc5c(Cl)c[nH]c45)c3F)NC2(C)C)cc1Cl
18 nM | 12.2 nM | 8.5 nM | 50 nM | 874 nM | – | – | C[C@H]1c2c(cc(F)c(-c3cccc4cc[nH]c34)c2F)NC(C)(C)[C@@H]1OC(=O)Nc1ccc2c(c1)OCO2
21 nM | 16.1 nM | 10 nM | 16 nM | – | – | – | C[C@H]1c2c(cc(F)c(-c3cccc4cc[nH]c34)c2F)NC(C)(C)[C@@H]1OC(=O)Nc1ccc(C#N)cc1
5.1 nM | 13.7 nM | 8.1 nM | 5 nM | 272 nM | – | – | C[C@H]1c2c(cc(F)c(-c3cccc4c(Cl)c[nH]c34)c2F)NC(C)(C)[C@@H]1OC(=O)Nc1ccc(C#N)cc1
178 nM | 70 nM | 44 nM | 29 nM | – | – | – | C[C@H]1c2c(cc(F)c(-c3cccc4cc[nH]c34)c2F)NC(C)(C)[C@@H]1OC(=O)Nc1ccc(Cl)cc1
15 nM | 30 nM | 29 nM | 16 nM | 267 nM | – | – | COC(=O)c1ccc(NC(=O)O[C@@H]2[C@@H](C)c3c(cc(F)c(-c4cccc5cc[nH]c45)c3F)NC2(C)C)cc1
3.5 nM | 5.1 nM | 8.4 nM | 39 nM | 361 nM | – | – | C[C@H]1c2c(cc(F)c(-c3cccc4cc[nH]c34)c2F)NC(C)(C)[C@@H]1OC(=O)Nc1ccc(N(C)C)cc1
– | – | – | – | 98 nM | – | – | C[C@H]1c2c(cc(F)c(-c3cccc4cc[nH]c34)c2F)NC(C)(C)[C@@H]1O (racemic)
39 nM | 3 nM | 10 nM | > 1000 nM | 199 nM | – | – | CNC(=O)O[C@@H]1[C@@H](C)c2c(cc(F)c(-c3cccc4cc[nH]c34)c2F)NC1(C)C (racemic)
21 nM | 2.2 nM | 12 nM | 52 nM | 463 nM | – | – | CNC(=O)O[C@@H]1[C@@H](C)c2c(cc(F)c(-c3cccc4c(Cl)c[nH]c34)c2F)NC1(C)C (racemic)
17 nM | 6.8 nM | 44 nM | 40 nM | 454 nM | 656 nM | 160 nM | C[C@H]1c2c(cc(F)c(-c3cccc4c(Cl)c[nH]c34)c2F)NC(C)(C)[C@@H]1OC(=O)NCc1ccccc1 (racemic)
89 nM | 7.8 nM | 45 nM | 17 nM | 361 nM | 378 nM | 213 nM | CC(C)NC(=O)O[C@@H]1[C@@H](C)c2c(cc(F)c(-c3cccc4c(Cl)c[nH]c34)c2F)NC1(C)C (racemic)
70 nM | 4.3 nM | 15 nM | 23 nM | 435 nM | 2250 nM | 93 nM | C[C@H]1c2c(cc(F)c(-c3cccc4c(Cl)c[nH]c34)c2F)NC(C)(C)[C@@H]1OC(=O)NC1CCCCC1 (racemic)
> 1000 nM | 132 nM | > 1000 nM | – | – | – | – | C[C@H]1c2c(cc(F)c(-c3cccc4cc[nH]c34)c2F)NC(C)(C)[C@@H]1OC(=O)N1CCCCC1 (racemic)
16 nM | 2.9 nM | 23 nM | 31 nM | 182 nM | 1110 nM | 231 nM | CC(=O)c1ccc(NC(=O)O[C@@H]2[C@@H](C)c3c(cc(F)c(-c4cccc5cc[nH]c45)c3F)NC2(C)C)cc1 (racemic)
24 nM | 13.7 nM | 13 nM | 38 nM | 287 nM | 1470 nM | 662 nM | C[C@H]1c2c(cc(F)c(-c3cccc4cc[nH]c34)c2F)NC(C)(C)[C@@H]1OC(=O)Nc1cccc(C#N)c1 (racemic)
29 nM | 9.4 nM | 49 nM | 22 nM | 333 nM | 3170 nM | 680 nM | CC(=O)c1cccc(NC(=O)O[C@@H]2[C@@H](C)c3c(cc(F)c(-c4cccc5cc[nH]c45)c3F)NC2(C)C)c1 (racemic)
